Tests used:
[1] = test system: N18 (mouse neuroblastoma) cells; assay: Caspase-3/7 assay in N18 cells; assay type: cell-based; conditions: 20 μM and 50 μM, 48 h or 96 h (FIG. 2)
Method: (§1) Cells. B16F10 (mouse melanoma), GL261 (mouse glioma), HOG (human oligodendroglioma), A549 (human lung cancer), and […] (mouse neuroblastoma) cells were cultured separately in DMEM containing 10% (v/v) fetal bovine serum and 1% (v/v) penicillin-streptomycin (PS) and allowed to grow to 40% confluence in a 96-well plate. Curcumin Treatment. Two hours before drug treatment, the medium in each well was replaced with 200 μl Neurobasal medium supplemented with 2% (v/v) B27 and 1% (v/v) PS (Drug-treatment Medium). A stock solution (40 mM) of curcumin was prepared in sterile dimethyl sulfoxide (DMSO) (Example 1). Through serial dilution of each stock solution in Drug-treatment Medium, the following concentrations were obtained: 20 μM and 50 μM (for caspase 3/7 assays) or 25 μM and 50 μM (for MTT assays). Drug-treatment Medium in each well was aspirated, and a drug solution of each concentration or carrier-containing medium (control) was added to triplicate wells of cells (50 μl/well). […] Additionally, the background absorbance was determined from parallel wells containing only the Drug-treatment Medium plus a particular concentration of the drug (no cells). […] Fluorescence in each well was measured using the FLx 800 plate reader (Bio-Tek Instruments, Winooski, Vt.) set at 485/20 nm excitation and 528/20 nm emission wavelengths and the sensitivity of 70. […]

[2] = test system: GL261 (mouse glioma) cells; assay: Caspase-3/7 assay in GL261 cells; assay type: cell-based; conditions: 20 μM and 50 μM, 48 h (FIG. 4)
Method: as §1

[3] = test system: B16F10 (mouse melanoma) cells; assay: Cell viability assay using MTT, B16F10; assay type: cell-based; conditions: 25 μM and 50 μM, 48 h or 96 h, versus control cells (FIG. 6a)
Method: (§2) Cells. B16F10 (mouse melanoma), GL261 (mouse glioma), HOG (human oligodendroglioma), A549 (human lung cancer), and N18 (mouse neuroblastoma) cells were cultured separately in DMEM containing 10% (v/v) fetal bovine serum and 1% (v/v) penicillin-streptomycin (PS) and allowed to grow to 40% confluence in a 96-well plate.
(§3) Curcumin Treatment. Two hours before drug treatment, the medium in each well was replaced with 200 μl Neurobasal medium supplemented with 2% (v/v) B27 and 1% (v/v) PS (Drug-treatment Medium). A stock solution (40 mM) of curcumin was prepared in sterile dimethyl sulfoxide (DMSO) (Example 1). Through serial dilution of each stock solution in Drug-treatment Medium, the following concentrations were obtained: 20 μM and 50 μM (for caspase 3/7 assays) or 25 μM and 50 μM (for MTT assays). […] Additionally, the background absorbance was determined from parallel wells containing only the Drug-treatment Medium plus a particular concentration of the drug (no cells).
(§4) Cell Viability Assay Using MTT (3-(4,5-Dimethylthiazolyl-2)-2,5-Diphenyltetrazolium Bromide). […] Absorbance was measured at 570 nm using a 96-well multi scanner auto-reader with the extraction buffer used as blank. For curcumin samples, the absorbance obtained from the corresponding curcumin plus medium samples was subtracted.

[4] = test system: A549 (human lung cancer) cells; assay: Cell viability assay using MTT, A549; assay type: cell-based; conditions: 25 μM and 50 μM, 48 h or 96 h, versus control cells (FIG. 6d)
Method: as §2, §3, §4

cyclin D1 = assay: Western blot of B16F10 cells, cyclin D1; assay type: cell-based, mouse; conditions: 50 μM
Method: (§5) B16F10 cells were cultured in 10-cm plates and then treated in duplicate with carrier or curcumin (50 μM). Following treatment for appropriate time periods, the cells were washed with PBS, lysed in RIPA buffer (PBS containing 1% Nonidet P40, 0.5% sodium deoxycholate, 0.1% SDS, 0.5 mM Na3VO4 plus freshly added PMSF and protease inhibitor cocktail; Boeringer-Roche), and then 20 μg of lysate protein (per lane) were analyzed by SDS-10% PAGE and Western blot analysis. Antibody concentrations used were: anti-phospho-NF-κB (1:1000) (Santa Cruz Biotechnology, Santa Cruz, Calif.), anti-phospho-Akt (1:5000) (Cell Signaling, CA), anti-cyclin D1 (1:1000) (Cell Signaling, CA), anti-BclXL (1:500) (Santa Cruz Biotechnology), anti-VEGF (1:500) (Santa Cruz Biotechnology), and anti-β-actin (1:1000) (Sigma, St. Louis, Mo.).

phospho-NF-κB = assay: Western blot of B16F10 cells, phospho-NF-κB; assay type: cell-based, mouse; conditions: 50 μM (FIG. 9)
Method: as §5

VEGF = assay: Western blot of B16F10 cells, VEGF; assay type: cell-based, mouse; conditions: 50 μM
Method: as §5

With COc1cc(/C=C/C(=O)CC(=O)/C=C/c2ccc(O)c(OC)c2)ccc1O [curcumin] the caspase-3/7 activity [1] was “increased”, the caspase-3/7 activity [2] was “increased” and the “cell viability (MTT)” value [3] was “dramatic decrease”. The “cell viability (MTT)” value [4] was “dramatic decrease”, the “cyclin D1 levels (Western blot)” value (cyclin D1; active cell division (first 48 h)) was “decrease” and the “cyclin D1 inhibition (Western blot)” value (cyclin D1; subsequently, when cell division had slowed down) was “not observed”. For the same compound, the “phospho-NF-κB (Western blot)” value (phospho-NF-κB) was “suppression” and the “VEGF (Western blot)” value (VEGF) was “suppressed”.
